Molecular target: T1, F508del CFTR (Homo sapiens, UniProt P13569, DEL508-508)
T1 construct: Primary CF airway epithelial cells were obtained from the UNC Cystic Fibrosis Tissue Procurement and Cell Culture Core; host or cells: primary CF airway epithelial cells
Assay: Equivalent current assay in primary CF airway epithelial cells (Corrector Activity, NAUC normalized to 3 μM VX809)
Format: cell-based
Settings: NAUC as % of positive control (VX-809)
Procedure: Primary CF airway epithelial cells were obtained from the UNC Cystic Fibrosis Tissue Procurement and Cell Culture Core. The cells are grown at 37° C. in a Heracell 150i incubator using growth media (BEGM, Fischer). Cells were then transferred to differentiation media (airway liquid interface media (ALI) media; Lechner J F and LaVeck M A, J. Tissue Culture Methods 1985, 9: 43-48) for a minimum of 4 weeks on coated Costar transwells. Two days before the assay the mucus on the apical surface of the cells was aspirated after incubating with 200 μL of differentiation media for at least thirty (30) minutes. One day before the assay test compounds were added to the basolateral surface of the cells at various test concentrations dissolved in DMSO. Duplicate wells were prepared giving a n=4 or n=6 protocol.
Cells were treated for 24 hours with various combinations and concentrations of the test articles, reference standard (3 μM VX809, positive control). Compounds stock solutions were prepared in DMSO and diluted 1/1000 into ALI media to their final assay concentration. Cells were treated with combination solutions (2 mL of each dilution) and incubated at 37° C. for 24 h.
For the equivalent current assay, cells on six Transwell (24-well) plates were treated. Each Transwell plate was filled with 200 μl of HBS on the apical surface and 2 ml on the basolateral surface. Plates were placed horizontally in a heated mount at 37° C. and equilibrated for 30 minutes. Resting current was measured for 15 min and then blocked by the apical addition of 5 μM benzamil. After 20 min, CFTR activator (10 μM forskolin) and potentiator (either 1 μM VX-770 or 3 μM FDL176) were added to both the apical and basolateral side to stimulate CFTR. An increase in chloride current is seen as an upward deflection of the trace. After another 60 min, CFTR-172 (a CFTR inhibitor, 20 μM) and/or bumetanide (20 uM) was added to block CFTR mediated chloride current.
The raw data, voltage vs. time and resistance vs. time for the equivalent current assay (sampling interval: 6 minutes) were transferred to Excel (Microsoft Office Professional, version 14.0.7106.5003) for analysis. CFTR specific current was computed from I=V/R (Ohms Law), the average amplitude of the increase in current elicited upon addition forskolin and ending upon addition of the CFTR channel specific blocker CFTR-172. This average is equivalent to the sum of the average forskolin activated and the average VX770-potentiated currents. The average current measured in vehicle (0.1% DMSO) treated cells, IV, was subtracted from the current for the test article, ITA, or from the corrector reference standard VX809 (3 uM, ISTD). For replicate measurements, the averaged vehicle subtracted response for the test article, was normalized to the averaged vehicle subtracted response of the reference corrector VX809 (3 μM).
INSC=(ITA−IV)(ave)/(ISTD−IV)(ave) (Equation 1)
A second endpoint, for the equivalent current assay, evaluated was NAUC, the normalized area under the curve (AUC) measuring the response after addition of forskolin and potentiator to the time point right before the addition of the CFTR inhibitor. The AUC is effectively the average response multiplied by the duration of the response. The AUC of the test article, AUCTA was then corrected by subtracting the average vehicle response, AUCV,ave over the same time range, and normalized as for the inhibitor-sensitive current to the difference of the corrector reference standard VX809 (3 μM VX809r,ave and the vehicle response:
NAUCTA=[AUCTA−AUCV,ave]/[AUCVx809r,ave−AUCV,ave] (Equation 2).
The normalized value for DMSO is 0.0 and for VX-809 alone is 1.0 for both of these equations.
Experiments were run with a minimum of n=4 replicates per concentration. Since the distribution for the ratio of two normal distributions is a Cauchy distribution, the median value must be used for the average and the average deviation must be used for the error of all normalized data. […]

T1 sequence (P13569 with tags, fused parts or gaps DEL508-508): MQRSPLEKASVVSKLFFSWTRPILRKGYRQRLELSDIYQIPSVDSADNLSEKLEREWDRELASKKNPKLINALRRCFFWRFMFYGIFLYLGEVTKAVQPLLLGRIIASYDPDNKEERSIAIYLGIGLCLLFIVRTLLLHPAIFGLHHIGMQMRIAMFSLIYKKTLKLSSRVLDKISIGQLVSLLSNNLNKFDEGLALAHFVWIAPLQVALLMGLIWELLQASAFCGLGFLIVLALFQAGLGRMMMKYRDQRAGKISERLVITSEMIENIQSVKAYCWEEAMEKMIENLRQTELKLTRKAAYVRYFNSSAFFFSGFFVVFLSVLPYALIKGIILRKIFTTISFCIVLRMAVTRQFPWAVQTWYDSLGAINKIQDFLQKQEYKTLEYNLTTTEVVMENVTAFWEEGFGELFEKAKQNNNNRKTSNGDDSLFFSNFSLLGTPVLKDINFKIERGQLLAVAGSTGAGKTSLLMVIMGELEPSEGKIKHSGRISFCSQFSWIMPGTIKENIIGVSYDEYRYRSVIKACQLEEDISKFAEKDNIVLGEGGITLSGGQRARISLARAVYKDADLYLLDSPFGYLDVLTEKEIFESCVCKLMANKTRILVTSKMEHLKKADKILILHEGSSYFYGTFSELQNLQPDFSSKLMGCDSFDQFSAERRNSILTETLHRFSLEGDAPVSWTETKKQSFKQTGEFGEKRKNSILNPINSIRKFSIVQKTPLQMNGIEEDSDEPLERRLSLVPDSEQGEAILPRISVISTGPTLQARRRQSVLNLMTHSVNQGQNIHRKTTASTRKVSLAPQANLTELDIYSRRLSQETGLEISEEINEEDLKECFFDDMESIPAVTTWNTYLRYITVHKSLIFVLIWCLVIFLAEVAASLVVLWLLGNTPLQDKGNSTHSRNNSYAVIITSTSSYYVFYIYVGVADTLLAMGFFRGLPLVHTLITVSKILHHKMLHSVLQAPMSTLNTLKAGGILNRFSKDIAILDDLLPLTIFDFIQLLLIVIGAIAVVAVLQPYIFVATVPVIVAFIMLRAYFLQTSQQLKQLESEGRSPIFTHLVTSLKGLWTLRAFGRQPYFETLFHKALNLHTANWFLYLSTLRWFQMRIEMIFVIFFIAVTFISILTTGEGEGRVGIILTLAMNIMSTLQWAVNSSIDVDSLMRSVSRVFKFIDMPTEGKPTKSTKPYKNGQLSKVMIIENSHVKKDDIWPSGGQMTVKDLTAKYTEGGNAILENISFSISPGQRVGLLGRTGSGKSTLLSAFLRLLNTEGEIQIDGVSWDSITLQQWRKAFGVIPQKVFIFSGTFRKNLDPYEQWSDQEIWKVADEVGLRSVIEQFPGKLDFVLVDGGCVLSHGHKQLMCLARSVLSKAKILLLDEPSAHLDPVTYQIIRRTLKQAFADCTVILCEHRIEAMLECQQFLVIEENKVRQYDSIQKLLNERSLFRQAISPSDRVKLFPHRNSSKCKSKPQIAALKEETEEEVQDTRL

Q: For `CCN(C(=O)Cn1nc(-c2cc(Cl)cc(C#N)c2)c2occc2c1=O)c1ccc2c(c1C)OC(F)(F)O2` [Example 172], which “Corr Activity (NAUC)” value is on record?
A: +++ (NAUC>70% of positive control)

Q: With `CC(C)COc1cc(F)cc(-c2nn(CC(=O)N(c3ccc4c(c3)OC(F)(F)O4)C3CC3)c(=O)c3nc[nH]c23)c1` [Example 384] as the compound, how does the “Corr Activity (NAUC)” value read?
A: ++ (NAUC 70-40% of positive control)

Q: With `CCN(C(=O)Cn1nc(-c2cccc(F)c2)c2oc(C(=O)NC(C)(C)C)cc2c1=O)c1ccc2c(c1)OC(F)(F)O2` [Example 119] as the compound, how does the “Corr Activity (NAUC)” value read?
A: +++ (NAUC>70% of positive control)

Q: `CCN(C(=O)Cn1nc(-c2cc(Cl)cc(CO)c2)c2[nH]cnc2c1=O)c1ccc2c(c1)OC(F)(F)O2` [Example 282] was tested. Which “Corr Activity (NAUC)” value did it give?
A: + (NAUC<40% of positive control)

Q: With `CCN(C(=O)Cn1nc(-c2cccc(F)c2)c2cn[nH]c2c1=O)c1ccc2c(c1)OC(F)(F)O2` [Example 495] as the compound, how does the “Corr Activity (NAUC)” value read?
A: ++ (NAUC 70-40% of positive control)

Q: Which “Corr Activity (NAUC)” value does the source give for `CCN(C(=O)Cn1nc(-c2cc(C)cc(C#N)c2)c2oc(C(F)F)cc2c1=O)c1ccc2c(c1)OC(F)(F)O2` [Example 189] here?
A: +++ (NAUC>70% of positive control)

Q: For `CN(C(=O)Cn1nc(-c2cccc(C#N)c2)c2oc(C(F)F)cc2c1=O)c1ccc2c(c1F)OC(F)(F)O2` [Example 197], which “Corr Activity (NAUC)” value is on record?
A: +++ (NAUC>70% of positive control)

Q: With `CCN(C(=O)Cn1nc(-c2ccc(OC)c(C(F)(F)F)c2)c2[nH]cnc2c1=O)c1ccc2c(c1)OC(F)(F)O2` [Example 338] as the compound, how does the “Corr Activity (NAUC)” value read?
A: ++ (NAUC 70-40% of positive control)

Q: With `CCN(C(=O)Cn1nc(-c2cc(C)cc(C#N)c2)c2occc2c1=O)c1cc2c(cc1C)OC(F)(F)O2` [Example 164] as the compound, how does the “Corr Activity (NAUC)” value read?
A: +++ (NAUC>70% of positive control)

Q: For `CCN(C(=O)Cn1nc(-c2ccc(OC)c(C#N)c2)c2[nH]cnc2c1=O)c1ccc2c(c1)OC(F)(F)O2` [Example 346], which “Corr Activity (NAUC)” value is on record?
A: +++ (NAUC>70% of positive control)

Q: `Cc1cc2c(=O)n(CC(=O)N(c3ccc4c(c3)OC(F)(F)O4)C3CC3)nc(-c3cc(Cl)cc(Cl)c3)c2o1` [Example 77] was tested. Which “Corr Activity (NAUC)” value did it give?
A: +++ (NAUC>70% of positive control)

Q: How did the “Corr Activity (NAUC)” value turn out when `O=C(Cn1nc(-c2ccc(N3CCCC3)cc2)c2[nH]cnc2c1=O)N(c1ccc2c(c1)OC(F)(F)O2)C1CC1` [Example 490] was run?
A: + (NAUC<40% of positive control)

Q: `O=C(Cn1nc(-c2cc(F)cc(F)c2)c2[nH]cnc2c1=O)N(c1ccc2c(c1)OC(F)(F)O2)C1CC1` [Example 380] was tested. Which “Corr Activity (NAUC)” value did it give?
A: ++ (NAUC 70-40% of positive control)

Q: `N#Cc1cc(-c2nn(CC(=O)N(c3ccc4c(c3)OC(F)(F)O4)C3CC3)c(=O)c3nc[nH]c23)ccc1Cl` [Example 445] was tested. Which “Corr Activity (NAUC)” value did it give?
A: +++ (NAUC>70% of positive control)

Q: How did the “Corr Activity (NAUC)” value turn out when `CCN(C(=O)Cn1nc(-c2cc(C)cc(C(F)(F)F)c2)c2[nH]cnc2c1=O)c1ccc2c(c1)OC(F)(F)O2` [Example 279] was run?
A: ++ (NAUC 70-40% of positive control)

Q: With `N#Cc1cc(-c2nn(CC(=O)N(c3ccc4c(c3)OC(F)(F)O4)C3CC3)c(=O)c3nc[nH]c23)ccc1N1CCC(F)C1` (stereo not drawn) [Example 488] as the compound, how does the “Corr Activity (NAUC)” value read?
A: +++ (NAUC>70% of positive control)

Q: Which “Corr Activity (NAUC)” value does the source give for `CCN(C(=O)Cn1nc(-c2cccc(C#N)c2)c2[nH]ccc2c1=O)c1ccc2c(c1)OC(F)(F)O2` [Example 503] here?
A: +++ (NAUC>70% of positive control)

Q: With `O=C(Cn1nc(-c2cccc(F)c2)c2occc2c1=O)N1CCCc2c1ccc1c2OC(F)(F)O1` [Example 162] as the compound, how does the “Corr Activity (NAUC)” value read?
A: +++ (NAUC>70% of positive control)

Q: How did the “Corr Activity (NAUC)” value turn out when `CN(C(=O)Cn1nc(-c2cccc(C#N)c2)c2cn[nH]c2c1=O)c1ccc2c(c1)OC(F)(F)O2` [Example 494] was run?
A: ++ (NAUC 70-40% of positive control)

Q: For `CCN(C(=O)Cn1nc(-c2cccc(OC(F)(F)F)c2)c2occc2c1=O)c1ccc2c(c1)OC(F)(F)O2` [Example 91], which “Corr Activity (NAUC)” value is on record?
A: +++ (NAUC>70% of positive control)

Q: For `CCN(C(=O)Cn1nc(-c2ccc3[nH]c4ccccc4c3c2)c2[nH]cnc2c1=O)c1ccc2c(c1)OC(F)(F)O2` [Example 295], which “Corr Activity (NAUC)” value is on record?
A: + (NAUC<40% of positive control)

Q: `CCN(C(=O)Cn1nc(-c2cc(F)cc(Cl)c2)c2[nH]cnc2c1=O)c1ccc2c(c1)OC(F)(F)O2` [Example 255] was tested. Which “Corr Activity (NAUC)” value did it give?
A: +++ (NAUC>70% of positive control)

Q: With `CCN(C(=O)Cn1nc(-c2cccc(C#N)c2)c2occc2c1=O)c1ccc(OC(F)(F)F)cc1` [Example 62] as the compound, how does the “Corr Activity (NAUC)” value read?
A: + (NAUC<40% of positive control)

Q: For `N#Cc1cccc(-c2nn(CC(=O)N(c3ccc4c(c3)OC(F)(F)O4)C3CC3)c(=O)c3ccoc23)c1` [Example 40], which “Corr Activity (NAUC)” value is on record?
A: ++ (NAUC 70-40% of positive control)

Q: `CCN(C(=O)Cn1nc(-c2cccc(Cl)c2)c2[nH]ncc2c1=O)c1ccc2c(c1)OC(F)(F)O2` [Example 500] was tested. Which “Corr Activity (NAUC)” value did it give?
A: ++ (NAUC 70-40% of positive control)

Q: `CCN(C(=O)Cn1nc(-c2ccc(C#N)c(Cl)c2)c2[nH]cnc2c1=O)c1ccc2c(c1)OC(F)(F)O2` [Example 336] was tested. Which “Corr Activity (NAUC)” value did it give?
A: ++ (NAUC 70-40% of positive control)

Q: Which “Corr Activity (NAUC)” value does the source give for `Cc1c(N(C)C(=O)Cn2nc(-c3cc(Cl)cc(C#N)c3)c3occc3c2=O)ccc2c1OC(F)(F)O2` [Example 171] here?
A: +++ (NAUC>70% of positive control)

Q: How did the “Corr Activity (NAUC)” value turn out when `Cc1cc2c(cc1N(C)C(=O)Cn1nc(-c3cc(F)cc(C#N)c3)c3oc(C(=O)NC(C)(C)C)cc3c1=O)OC(F)(F)O2` [Example 135] was run?
A: +++ (NAUC>70% of positive control)

Q: For `CN(C(=O)Cn1nc(-c2cccc(C#N)c2)c2[nH]cnc2c1=O)c1ccc2c(c1F)OC(F)(F)O2` [Example 251], which “Corr Activity (NAUC)” value is on record?
A: +++ (NAUC>70% of positive control)

Q: For `CCN(C(=O)Cn1nc(-c2cc(F)cc(OCC(C)C)c2)c2[nH]cnc2c1=O)c1ccc2c(c1)OC(F)(F)O2` [Example 264], which “Corr Activity (NAUC)” value is on record?
A: ++ (NAUC 70-40% of positive control)

Q: With `CN1C(=O)Cc2ccc(-c3nn(CC(=O)N(c4ccc5c(c4)OC(F)(F)O5)C4CC4)c(=O)c4nc[nH]c34)cc21` [Example 432] as the compound, how does the “Corr Activity (NAUC)” value read?
A: + (NAUC<40% of positive control)

Q: Which “Corr Activity (NAUC)” value does the source give for `CCN(C(=O)Cn1nc(-c2ccc(C#N)c(C(F)(F)F)c2)c2[nH]cnc2c1=O)c1ccc2c(c1)OC(F)(F)O2` [Example 351] here?
A: + (NAUC<40% of positive control)

Q: For `CCN(C(=O)Cn1nc(-c2ccc(OCC(F)(F)F)c(F)c2)c2[nH]cnc2c1=O)c1ccc2c(c1)OC(F)(F)O2` [Example 339], which “Corr Activity (NAUC)” value is on record?
A: ++ (NAUC 70-40% of positive control)

Q: Which “Corr Activity (NAUC)” value does the source give for `CCN(C(=O)Cn1nc(-c2cc(Cl)cc(C#N)c2)c2oc(C(=O)NC(C)(C)C)cc2c1=O)c1cc2c(cc1C)OC(F)(F)O2` [Example 137] here?
A: +++ (NAUC>70% of positive control)

Q: `CCN(C(=O)Cn1nc(-c2cc(C#N)cc(C(C)(C)C)c2)c2oc(C(=O)NC(C)(C)C)cc2c1=O)c1ccc2c(c1)OC(F)(F)O2` [Example 130] was tested. Which “Corr Activity (NAUC)” value did it give?
A: +++ (NAUC>70% of positive control)

Q: Which “Corr Activity (NAUC)” value does the source give for `CCN(C(=O)Cn1nc(-c2cc(C)cc(C#N)c2)c2[nH]cnc2c1=O)c1cc2c(cc1C)OC(F)(F)O2` [Example 248] here?
A: +++ (NAUC>70% of positive control)

— patent US20220402925A1, “COMPOUNDS AND METHODS FOR THE TREATMENT OF CYSTIC FIBROSIS” (Flatley Discovery Lab, LLC, priority 2019, published 2022)
